Patent US7964531B2, “3-phenoxy-4-pyridazinol derivatives and herbicidal composition containing the same” (Mitsui Chemicals Agro, Inc., priority 2001, dated 2011)

Key:
Type in all cases: in vivo
Settings in all cases: wettable powder applied 3 days after transplanting, judged after 25 days
Cyperus serotinus = assay: Test Example 1: herbicidal effects, paddy-field pot test
Procedure, shortened: (§1)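 Herbicidal effect and crop injury were rated 0 (0-10% inhibition) to 5 (91-100%) 25 days after treatment. Water-diluted wettable powder was applied to flooded greenhouse pots 3 days after transplanting 2.2-leaf rice. The pots held seeded weeds and sprouted Cyperus serotinus tubers.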

Scirpus joncoides = assay: as above
Procedure, shortened: as §1

[1] = tested on: annual broad-leaved weeds (Lindernia spp., Rotala indica); assay: as above
Procedure, shortened: as §1

[2] = tested on: barnyardgrass (Echinochloa oryzicola Vasing.); assay: as above
Procedure, shortened: as §1

[3] = tested on: transplanted paddy-field rice; assay: Test Example 1: crop injury against transplanted paddy-field rice
Procedure, shortened: as §1

Compound	Herbicidal effects Cyperus serotinus (Cyperus serotinus; chemical dosage 12.5 g/a)	Herbicidal effects Cyperus serotinus (Cyperus serotinus; chemical dosage 25 g/a)	Herbicidal effects Scirpus joncoides (Scirpus joncoides; chemical dosage 12.5 g/a)	Herbicidal effects Scirpus joncoides (Scirpus joncoides; chemical dosage 25 g/a)	Herbicidal effects Broad leaf ([1]; chemical dosage 12.5 g/a)	Herbicidal effects Broad leaf ([1]; chemical dosage 25 g/a)	Herbicidal effects Barnyard grass ([2]; chemical dosage 12.5 g/a)	Herbicidal effects Barnyard grass ([2]; chemical dosage 25 g/a)	Crop injury against transplanted rice ([3]; chemical dosage 12.5 g/a)	Crop injury against transplanted rice ([3]; chemical dosage 25 g/a)	Herbicidal effects Cyperus serotinus (Cyperus serotinus; chemical dosage 10 g/a)	Herbicidal effects Cyperus serotinus (Cyperus serotinus; chemical dosage 20 g/a)	Herbicidal effects Scirpus joncoides (Scirpus joncoides; chemical dosage 10 g/a)	Herbicidal effects Scirpus joncoides (Scirpus joncoides; chemical dosage 20 g/a)	Herbicidal effects Broad leaf ([1]; chemical dosage 10 g/a)	Herbicidal effects Broad leaf ([1]; chemical dosage 20 g/a)	Herbicidal effects Barnyard grass ([2]; chemical dosage 10 g/a)	Herbicidal effects Barnyard grass ([2]; chemical dosage 20 g/a)	Crop injury against transplanted rice ([3]; chemical dosage 10 g/a)	Crop injury against transplanted rice ([3]; chemical dosage 20 g/a)
Cc1cc(C)c(C)c(Oc2nnc(Cl)cc2O)c1C [Example 320]	5 (Growth inhibition rate; 91 to 100%)	5 (Growth inhibition rate; 91 to 100%)	5 (Growth inhibition rate; 91 to 100%)	5 (Growth inhibition rate; 91 to 100%)	5 (Growth inhibition rate; 91 to 100%)	5 (Growth inhibition rate; 91 to 100%)	1 (Growth inhibition rate; 11 to 30%)	2 (Growth inhibition rate; 31 to 50%)	0 (Growth inhibition rate; 0 to 10%)	0 (Growth inhibition rate; 0 to 10%)	–	–	–	–	–	–	–	–	–	–
CC(=O)Oc1cc(Cl)nnc1Oc1ccccc1C1CC1 [Example 323]	–	–	–	–	–	–	–	–	–	–	5 (Growth inhibition rate; 91 to 100%)	5 (Growth inhibition rate; 91 to 100%)	5 (Growth inhibition rate; 91 to 100%)	5 (Growth inhibition rate; 91 to 100%)	5 (Growth inhibition rate; 91 to 100%)	5 (Growth inhibition rate; 91 to 100%)	3 (Growth inhibition rate; 51 to 70%)	4 (Growth inhibition rate; 71 to 90%)	0 (Growth inhibition rate; 0 to 10%)	0 (Growth inhibition rate; 0 to 10%)
O=C(Oc1cc(Cl)nnc1Oc1ccccc1C1CC1)C1CC1 [Example 327]	–	–	–	–	–	–	–	–	–	–	5 (Growth inhibition rate; 91 to 100%)	5 (Growth inhibition rate; 91 to 100%)	5 (Growth inhibition rate; 91 to 100%)	5 (Growth inhibition rate; 91 to 100%)	5 (Growth inhibition rate; 91 to 100%)	5 (Growth inhibition rate; 91 to 100%)	4 (Growth inhibition rate; 71 to 90%)	4 (Growth inhibition rate; 71 to 90%)	0 (Growth inhibition rate; 0 to 10%)	0 (Growth inhibition rate; 0 to 10%)
Cc1ccccc1Oc1nnc(Cl)cc1OC(=O)c1ccccc1 [Example 328]	–	–	–	–	–	–	–	–	–	–	5 (Growth inhibition rate; 91 to 100%)	5 (Growth inhibition rate; 91 to 100%)	3 (Growth inhibition rate; 51 to 70%)	5 (Growth inhibition rate; 91 to 100%)	3 (Growth inhibition rate; 51 to 70%)	5 (Growth inhibition rate; 91 to 100%)	3 (Growth inhibition rate; 51 to 70%)	4 (Growth inhibition rate; 71 to 90%)	0 (Growth inhibition rate; 0 to 10%)	0 (Growth inhibition rate; 0 to 10%)
O=C(Oc1cc(Cl)nnc1Oc1ccccc1C1CC1)c1ccccc1 [Example 329]	–	–	–	–	–	–	–	–	–	–	5 (Growth inhibition rate; 91 to 100%)	5 (Growth inhibition rate; 91 to 100%)	5 (Growth inhibition rate; 91 to 100%)	5 (Growth inhibition rate; 91 to 100%)	5 (Growth inhibition rate; 91 to 100%)	5 (Growth inhibition rate; 91 to 100%)	2 (Growth inhibition rate; 31 to 50%)	4 (Growth inhibition rate; 71 to 90%)	0 (Growth inhibition rate; 0 to 10%)	0 (Growth inhibition rate; 0 to 10%)
COC(=O)Oc1cc(Cl)nnc1Oc1ccccc1C1CC1 [Example 345]	–	–	–	–	–	–	–	–	–	–	5 (Growth inhibition rate; 91 to 100%)	5 (Growth inhibition rate; 91 to 100%)	5 (Growth inhibition rate; 91 to 100%)	5 (Growth inhibition rate; 91 to 100%)	5 (Growth inhibition rate; 91 to 100%)	5 (Growth inhibition rate; 91 to 100%)	3 (Growth inhibition rate; 51 to 70%)	4 (Growth inhibition rate; 71 to 90%)	0 (Growth inhibition rate; 0 to 10%)	0 (Growth inhibition rate; 0 to 10%)
CCOC(=O)Oc1cc(Cl)nnc1Oc1ccccc1C1CC1 [Example 347]	–	–	–	–	–	–	–	–	–	–	5 (Growth inhibition rate; 91 to 100%)	5 (Growth inhibition rate; 91 to 100%)	5 (Growth inhibition rate; 91 to 100%)	5 (Growth inhibition rate; 91 to 100%)	5 (Growth inhibition rate; 91 to 100%)	5 (Growth inhibition rate; 91 to 100%)	3 (Growth inhibition rate; 51 to 70%)	4 (Growth inhibition rate; 71 to 90%)	0 (Growth inhibition rate; 0 to 10%)	0 (Growth inhibition rate; 0 to 10%)
Cc1ccccc1Oc1nnc(Cl)cc1OC(=O)OCC(Cl)(Cl)Cl [Example 349]	–	–	–	–	–	–	–	–	–	–	5 (Growth inhibition rate; 91 to 100%)	5 (Growth inhibition rate; 91 to 100%)	4 (Growth inhibition rate; 71 to 90%)	5 (Growth inhibition rate; 91 to 100%)	4 (Growth inhibition rate; 71 to 90%)	5 (Growth inhibition rate; 91 to 100%)	3 (Growth inhibition rate; 51 to 70%)	4 (Growth inhibition rate; 71 to 90%)	0 (Growth inhibition rate; 0 to 10%)	0 (Growth inhibition rate; 0 to 10%)
Cc1ccccc1Oc1nnc(Cl)cc1OS(C)(=O)=O [Example 356]	–	–	–	–	–	–	–	–	–	–	5 (Growth inhibition rate; 91 to 100%)	5 (Growth inhibition rate; 91 to 100%)	3 (Growth inhibition rate; 51 to 70%)	5 (Growth inhibition rate; 91 to 100%)	4 (Growth inhibition rate; 71 to 90%)	5 (Growth inhibition rate; 91 to 100%)	2 (Growth inhibition rate; 31 to 50%)	3 (Growth inhibition rate; 51 to 70%)	0 (Growth inhibition rate; 0 to 10%)	0 (Growth inhibition rate; 0 to 10%)
CS(=O)(=O)Oc1cc(Cl)nnc1Oc1ccccc1C1CC1 [Example 357]	–	–	–	–	–	–	–	–	–	–	5 (Growth inhibition rate; 91 to 100%)	5 (Growth inhibition rate; 91 to 100%)	5 (Growth inhibition rate; 91 to 100%)	5 (Growth inhibition rate; 91 to 100%)	5 (Growth inhibition rate; 91 to 100%)	5 (Growth inhibition rate; 91 to 100%)	2 (Growth inhibition rate; 31 to 50%)	3 (Growth inhibition rate; 51 to 70%)	0 (Growth inhibition rate; 0 to 10%)	0 (Growth inhibition rate; 0 to 10%)
CCCS(=O)(=O)Oc1cc(Cl)nnc1Oc1ccccc1C [Example 359]	–	–	–	–	–	–	–	–	–	–	5 (Growth inhibition rate; 91 to 100%)	5 (Growth inhibition rate; 91 to 100%)	3 (Growth inhibition rate; 51 to 70%)	4 (Growth inhibition rate; 71 to 90%)	3 (Growth inhibition rate; 51 to 70%)	5 (Growth inhibition rate; 91 to 100%)	4 (Growth inhibition rate; 71 to 90%)	5 (Growth inhibition rate; 91 to 100%)	0 (Growth inhibition rate; 0 to 10%)	0 (Growth inhibition rate; 0 to 10%)
CCCS(=O)(=O)Oc1cc(Cl)nnc1Oc1ccccc1C1CC1 [Example 360]	–	–	–	–	–	–	–	–	–	–	5 (Growth inhibition rate; 91 to 100%)	5 (Growth inhibition rate; 91 to 100%)	5 (Growth inhibition rate; 91 to 100%)	5 (Growth inhibition rate; 91 to 100%)	5 (Growth inhibition rate; 91 to 100%)	5 (Growth inhibition rate; 91 to 100%)	3 (Growth inhibition rate; 51 to 70%)	4 (Growth inhibition rate; 71 to 90%)	0 (Growth inhibition rate; 0 to 10%)	0 (Growth inhibition rate; 0 to 10%)
